From ChEMBL document CHEMBL5729293, “Inhibitors of KEAP1-Nrf2 protein-protein interaction” (2022) come the findings set out here.

Molecules are shown by their SMILES. A value given as a limit tells only on which side of the number the result lay.

A short description of the experiment: Fluorescence Based Assay: The details of the KEAP1 KELCH ThermoFluor® Assay Construct are as follows: Kelch domain of human KEAP 1 (321-624 aa) was used in the assay. The protein was expressed in E. coli with 6His tag that was cleaved prior to receipt for use.ThermoFluor® experiments were carried out using instruments owned by Janssen Research and Discovery, L.L.C. through its acquisition of 3-Dimensional Pharmaceuticals, Inc. 1,8-ANS (Invitrogen) was used as a fluorescent dye. Protein (KEAP Kelch) and compound solutions were dispensed into black 384-well polypropylene PCR microplates (Abgene) and overlayed with silicone oil (1 μL, Fluka, type DC 200) to prevent evaporation.Reference wells contained KEAP Kelch without compounds, and the assay conditions were as follows: 1.1 μM (0.037mg/mL) KEAP Kelch, 80 μM 1,8-ANS, 25 mM PIPES, pH 7.0, 100 mM NaCl, 0.002% Tween-20. (In general: Differential scanning fluorimetry follows unfolding on heating by fluorescence.)

A word on the Kd: it is the equilibrium constant for the complex coming apart. A lower Kd goes with tighter binding. In turn, `Cc1ccc([C@@H](CC(=O)O)c2ccn3c(C(F)(F)F)nnc3c2C)nc1CN1CC2(CC2)Oc2ncccc2S1(=O)=O` gave a Kd of less than 1 nM.
Then `Cc1cnc2c(c1)S(=O)(=O)N(Cc1nc([C@@H](c3ccn4c(C(F)F)nnc4c3C)C(C)(C)C(=O)O)ccc1C)CC1(COC1)O2`, with less than 1 nM; and `CCc1nnc2c(C)c(C(CC(=O)O)c3ccc(C)c(CN4C[C@H]5CCCN5c5ncccc5S4(=O)=O)c3)ccn12` (stereo partly specified), with less than 1 nM; and `Cc1ccc([C@@H](c2ccn3c(C(F)(F)F)nnc3c2C)C(C)(C)C(=O)O)cc1CN1CC2(CCOCC2)Oc2nc(OCCN3CCCCC3)c(C)cc2S1(=O)=O`, with less than 1 nM.
With `Cc1ccc([C@H](CC(=O)O)c2ccn3c(C(F)(F)F)nnc3c2C)nc1CN1C[C@H]2CCCCN2c2ncc(C#N)cc2S1(=O)=O` the figure was less than 1 nM; with `Cc1ccc([C@@H](CC(=O)O)c2ccn3c(C(F)F)nnc3c2C)cc1CN1C[C@@H]2CCCCN2c2ncc(C#N)cc2S1(=O)=O`, less than 1 nM; with `COC1CCN(CCOc2nc3c(cc2C)S(=O)(=O)N(Cc2cc([C@@H](c4ccn5c(C(F)(F)F)nnc5c4C)C(C)(C)C(=O)O)ccc2C)CC2(CC2)O3)CC1`, less than 1 nM.
Then `Cc1ccc([C@H](CC(=O)O)c2ccn3c(C(F)(F)F)nnc3c2C)cc1CN1C[C@@H]2CCCCN2c2ncc(C#N)cc2S1(=O)=O`, with less than 1 nM.
In turn, `Cc1ccc([C@H](c2ccn3c(C(F)(F)F)nnc3c2C)C(C)(C)C(=O)O)cc1CN1CC2(CCOCC2)Oc2nc(N[C@@H](C)CN3CCOCC3)c(C)cc2S1(=O)=O` registered a Kd of less than 1 nM.
Then `CCn1nnc2c(C)c([C@@H](CC(=O)O)c3ccc(C)c(CN4C[C@@H]5CCCCN5c5ncccc5S4(=O)=O)n3)ccc21`, with less than 1 nM.
With `Cc1ccc(C(CC(=O)O)c2ccn3c(C(F)(F)F)nnc3c2C)cc1CN1CC2(COC2)Oc2ccccc2S1(=O)=O` (stereo unspecified) the figure was less than 1 nM; with `CC[C@@H]1CN(Cc2cc(C(CC(=O)O)c3ccn4c(C(F)(F)F)nnc4c3)ccc2C)S(=O)(=O)c2cccnc2O1` (stereo partly specified), less than 1 nM.
Then `Cc1ccc([C@@H](CC(=O)O)c2cc(OC3CC3)c3c(c2)nnn3C)cc1CN1C[C@H]2CCCCN2c2ncccc2S1(=O)=O`, with less than 1 nM; and `CCn1nnc2c(C)c(C(CC(=O)O)c3ccc(C)c(CN4CC5(COC5)Oc5ncccc5S4(=O)=O)n3)ccc21` (stereo unspecified), with less than 1 nM.
In turn, `CC[C@@H]1CN(Cc2cc(C(CC(=O)O)c3ccn4c(C(F)F)nnc4c3C)ccc2C)S(=O)(=O)c2cccnc2O1` (stereo partly specified) registered a Kd of less than 1 nM.
Then `Cc1ccc(C(CC(=O)O)c2ccn3c(C(F)(F)F)nnc3c2C)cc1CN1CC2(COC2)Oc2ncccc2S1(=O)=O` (stereo unspecified), with less than 1 nM; and `CCc1nnc2c(C)c([C@@H](CC(=O)O)c3ccc(C)c(CN4C[C@H]5CCCN5c5ncccc5S4(=O)=O)c3)ccn12`, with less than 1 nM.
With `Cc1ccc([C@H](CC(=O)O)c2ccc3c(nnn3CC3CC3)c2C)cc1CN1C[C@H]2CCCN2c2ncccc2S1(=O)=O` the figure was less than 1 nM; with `Cc1ccc(C(CC(=O)O)c2ccc3c(nnn3C3CC3)c2C)cc1CN1CC2(COC2)Oc2ccccc2S1(=O)=O` (stereo unspecified), less than 1 nM; with `Cc1c(C(CC(=O)O)c2ccc(Cl)c(CN3CC4CCCCN4c4ncc(F)cc4S3(=O)=O)c2)ccn2c(C(F)(F)F)nnc12` (stereo unspecified), less than 1 nM.
Then `CCn1nnc2c(C)c([C@@H](CC(=O)O)c3ccc(C)c(CN4C[C@H]5CCCN5c5ccccc5S4(=O)=O)c3)ccc21`, with less than 1 nM; and `Cc1cnc2c(c1)S(=O)(=O)N(Cc1cc([C@@H](c3ccn4c(C(F)(F)F)nnc4c3C)C(C)(C)C(=O)O)ccc1C)CC1(CNC1)O2`, with less than 1 nM.
`Cc1ccc(C(CC(=O)O)c2ccc3c(nnn3CC3CC3)c2C)cc1CN1CC2(COC2)Oc2ccccc2S1(=O)=O` (stereo unspecified) showed a Kd of less than 1 nM.
Then `Cc1ccc([C@@H](CC(=O)O)c2ccn3c(C(F)F)nnc3c2C)cc1CN1CC2(CC2)Oc2ncc(F)cc2S1(=O)=O`, with less than 1 nM; and `Cc1ccc([C@@H](CC(=O)O)c2ccn3c(C(F)F)nnc3c2C)cc1CN1CC2(COC2)Oc2ncccc2S1(=O)=O`, with less than 1 nM; and `Cc1ccc(C(CC(=O)O)c2ccn3c(C(F)F)nnc3c2C)cc1CN1CC2(CC2)Oc2ncc(Cl)cc2S1(=O)=O` (stereo unspecified), with less than 1 nM.
Then `Cc1ccc([C@H](CC(=O)O)c2ccn3c(C(F)F)nnc3c2C)cc1CN1CC2(CC2)Oc2ncccc2S1(=O)=O`, with less than 1 nM.
Then `Cc1ccc(C(CC(=O)O)c2ccn3c(C(F)(F)F)nnc3c2C)nc1CN1CC2(COC2)Oc2ccccc2S1(=O)=O` (stereo unspecified), with less than 1 nM.
The compound `Cc1cc2cc([C@H](CC(=O)O)c3ccc(C)c(CN4C[C@H]5CCCCN5c5ncccc5S4(=O)=O)c3)n(C)c2nn1` showed an equilibrium dissociation constant (Kd) of less than 1 nM.
`Cc1ccc([C@@H](c2ccn3c(C(F)F)nnc3c2C)C(C)(C)C(=O)O)cc1CN1CC2(CCOCC2)Oc2nc(OCCN3CCCC3)c(C)cc2S1(=O)=O`: the dissociation constant Kd was less than 1 nM.
In turn, `Cc1ccc([C@@H](c2ccn3c(C(F)(F)F)nnc3c2C)C(C)(C)C(=O)O)cc1CN1CC2(CC2)Oc2nc(OCCN3CCC(F)CC3)c(C)cc2S1(=O)=O` gave a Kd of less than 1 nM.
Then `Cc1ccc([C@@H](CC(=O)O)c2ccn3c(C(F)(F)F)nnc3c2C)nc1CN1CC2(CC2)Oc2ncc(F)cc2S1(=O)=O`, with less than 1 nM; and `Cc1cnc2c(c1)S(=O)(=O)N(Cc1nc([C@@H](c3ccn4c(C(F)F)nnc4c3C)C(C)(C)C(=O)O)ccc1C)CC1(CC1)O2`, with less than 1 nM; and `CC[C@@H]1CN(Cc2cc([C@H](CC(=O)O)c3ccn4c(C(F)(F)F)nnc4c3)ccc2C)S(=O)(=O)c2cccnc2O1`, with less than 1 nM.
With `Cc1ccc([C@H](CC(=O)O)c2ccn3c(C(F)(F)F)nnc3c2C)cc1CN1C[C@H]2COCCN2c2ncc(Cl)cc2S1(=O)=O` the figure was less than 1 nM; with `Cc1ccc([C@H](c2ccn3c(C(F)(F)F)nnc3c2C)C(C)(C)C(=O)O)cc1CN1CC2(CCNCC2)Oc2ncccc2S1(=O)=O`, more than 10000 nM.
